Results as given in article PMC10357585 (Biochemistry, 2023).
Marks after values point to notes of the source that are not given here.

How the values were obtained:
TcHGXPRT [1] = target: T1, TcHGXPRT (Trypanosoma cruzi, UniProt Q4DRC3); assay: Dead-end inhibition studies of TcHGXPRT; format: biochemical
T1 sequence (Q4DRC3 1-231): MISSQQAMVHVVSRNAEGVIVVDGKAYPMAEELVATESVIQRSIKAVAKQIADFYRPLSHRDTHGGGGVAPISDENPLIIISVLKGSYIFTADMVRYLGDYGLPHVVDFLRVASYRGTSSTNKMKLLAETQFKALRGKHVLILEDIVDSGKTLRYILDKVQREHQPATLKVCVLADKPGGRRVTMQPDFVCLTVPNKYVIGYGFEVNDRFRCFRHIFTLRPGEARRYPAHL

TcHGXPRT [2] = target: T1, TcHGXPRT; assay: Initial rate studies of TcHGXPRT, GMP biosynthesis; format: biochemical; details: for kcat: GMP biosynthesis; for Ki: Ki,PRPP
TcA (HGPRT) = details: variable 6-oxopurine, PRPP 1 mM, ref Glockzin et al., 2022.[43]; cited from earlier work
TcHGPRT = details: variable substrate PRPP (20–215 μM); ref Wenck et al., 2004.[30]; cited from earlier work
TcHGXPRT [3] = target: T1, TcHGXPRT; assay: Product inhibition studies of TcHGXPRT; format: biochemical; details: PRPP 1 mM
PfHGXPRT = details: read-out: apparent Km, Xan as substrate; cited from earlier work
[4] = variable substrate Guanine (10–300 μM) at fixed PRPP levels
[5] = variable substrate PRPP (1–78 μM) at fixed Gua levels

SMILES: O=c1[nH]c(=O)c2[nH]ccc2[nH]1 [9-deazaxanthine]
- Ki (TcHGXPRT [1]): 70 ± 10 µM
- Inhibition pattern (TcHGXPRT [1]; 9-deazaxanthine (0–250 μM) vs. variable Xan (3–100 μM), PRPP 1 mM): C ^e
- Inhibition pattern (TcHGXPRT [1]; 9-deazaxanthine (0–600 μM) vs. variable PRPP (23–750 μM), Xan 120 μM): UC ^e
- Kii (TcHGXPRT [1]; 9-deazaxanthine vs. variable PRPP, Xan 120 μM, 37 °C, pH 8.3, 12 mM MgCl2): 490 ± 40 µM

SMILES: Nc1nc2nc[nH]c2c(=O)[nH]1 [Gua, guanine]
- kcat (TcHGXPRT [2]; [4]): 0.46 ± 0.01 s^–1
- Km (TcA (HGPRT)): 19 ± 1 µM
- kcat (TcA (HGPRT)): 32 ± 1 ^b s^–1
- KGua (TcHGPRT): 12 ± 1 ^d μM
- kcat/KGua (TcHGPRT): 2650 ^d × 10^3 M^–1 s^–1

SMILES: O=c1[nH]cnc2nc[nH]c12 [Hx, hypoxanthine]
- Km (TcA (HGPRT)): 13 ± 4 µM
- kcat (TcA (HGPRT)): 32 ± 1 ^b s^–1

SMILES: O=P(O)(O)OP(=O)(O)O [PPi, pyrophosphate]
- Inhibition pattern (TcHGXPRT [3]; PPi (0–200 μM) vs. variable Xan (2.5–150 μM)): NC ^e
- Kii (TcHGXPRT [3]; PPi vs. variable Xan): 1400 ± 400 µM
- Ki (TcHGXPRT [3]; read-out: Kis, PPi vs. variable Xan): 190 ± 40 µM

SMILES: O=P(O)(O)OC[C@H]1O[C@H](OP(=O)(O)OP(=O)(O)O)[C@H](O)[C@@H]1O [PRPP, 5-phospho-D-ribose 1-pyrophosphate]
- kcat (TcHGXPRT [2]; [5]): 0.44 ± 0.02 s^–1
- Ki (TcHGXPRT [2]; [4]): 0.7 ± 0.2 µM
- Ki (TcHGXPRT [2]; [5]): 0.6 ± 0.3 µM
- KPRPP (TcHGPRT): 32 ± 5 ^d μM
- kcat/KPRPP (TcHGPRT): 1010 ^d × 10^3 M^–1 s^–1

SMILES: O=c1[nH]c(=O)c2nc[nH]c2[nH]1 [Xan, xanthine]
- Km (TcA (HGPRT)): 160 ± 40 µM
- kcat (TcA (HGPRT)): 0.005 ± 0.0006 ^b s^–1
- Km (PfHGXPRT): 189 to 420 µM
